Results reported in US7863326B2, “Pharmaceutical compositions comprising ascorbic acid for the treatment of fungal superinfections and fungal recurrences” (Polichem S.A., priority 2003, dated 2011).

Assays:
[1] = tested on: experimental renal candidiasis; settings: rats, orally supplemented to the diet; evident at very low dose, disappearing at a higher dose level; cited from earlier work
[2] = tested on: Candida; experiment: Double-blind placebo-controlled study of preventing Candida reinfection after miconazole in women with recurrent vaginal candidiasis; type: in vivo
Description: Forty women with an exacerbation of recurrent vaginal candidiasis underwent a follow up preventative therapy with ascorbic acid. Most important inclusion criteria were: adult women in fertile age (18-50); ≧3 episodes of acute vaginal candidiasis in the last 12 months; acute vaginal candidiasis in the last 14 days; eradication of Candida (fresh examination) after an appropriate miconazole treatment. Exclusion criteria were: severe vaginal infections; HIV positivity; diabetes; pregnant women. The design was double blind, parallel groups versus placebo.
After completion of the standard treatment with miconazole, all the responders (patients with eradication of Candida at the end of treatment) were randomized to a standardized preventative vaginal application of ascorbic acid (in form of gel, containing 7.1% ascorbic acid as the only active ingredient, same composition as per the Example 1) or to an undistinguishable placebo. The product was applied once daily in the evening, before going to bed, for 6 consecutive days. The 6-day cycle was repeated monthly for 6 consecutive months, starting on the first month immediately after patient randomization; during the following 5 months, the therapeutic cycle with ascorbic acid was started on the day after termination of cyclic menses. Primary endpoint of the study was the occurrence of episodes of Candida reinfection, confirmed by fresh examination of the vaginal smear. In case of reinfection, this was treated with a further standard miconazole treatment and the follow up with ascorbic acid was continued immediately after confirmation of microbiological eradication. All patients in the ascorbic acid group terminated the study, 2 patients of placebo group were lost to follow up. […] The protection factor of ascorbic acid against Candida reinfection was 46% in this investigation.

[3] = tested on: Candida; experiment: Randomized double-blind placebo-controlled study of preventing Candida superinfection after standard metronidazole treatment; type: in vivo, patients
Protocol: Two hundred patients with a negative microbiology of their vaginal specimen after a standard metronidazole treatment have been included in a controlled study aimed at the evaluation of ascorbic acid capability to prevent Candida superinfection in those patients. The study was randomized, double blind, parallel groups versus placebo. As active treatment, a 6-day course of vaginal tablets, containing 250 mg silicon-coated ascorbic acid as per the Example 2, was given once monthly for 3 months starting after menses. Placebo was undistinguishable from active treatment. Ninety-five patients in the active group and 92 respectively in the placebo group terminated the study and were included in the efficacy analysis. […] The protection factor of ascorbic acid against Candida superinfection in this experiment was 40%.

O=C1O[C@H]([C@@H](O)CO)C(O)=C1O [ascorbic acid, L-ascorbic acid]
effect on the resistance to experimental renal candidiasis [1]: inconclusive
episodes of reinfection ([2]; 7.1% ascorbic acid vaginal gel once daily for 6 days, cycle repeated monthly for 6 months, reinfection confirmed by fresh examination of vaginal smear): 15 episodes
acute infection:patient rate ([2]; 7.1% ascorbic acid vaginal gel, 6-day cycles monthly for 6 months): 0.75 /6 months
protection factor against Candida reinfection ([2]; versus placebo, 6 months): 46%
patients with Candida superinfection (percent of group) ([3]; vaginal tablets with 250 mg silicon-coated ascorbic acid, 6-day course once monthly for 3 months): 9%
patients with Candida superinfection ([3]; vaginal tablets with 250 mg silicon-coated ascorbic acid, 6-day course once monthly for 3 months, 95 patients analysed): 9 patients
protection factor against Candida superinfection ([3]; versus placebo, 3 months): 40%
